± gives the expanded uncertainty stated by the source.
Columns and labels:
[1] = 101.33 kPa, Liquid
[2] = refractive index (other wavelength) (dimensionless); settings: 101 kPa, Liquid, Standard Abbe refractometry
[3] = refractive index (other wavelength) (dimensionless); wn = mass fraction of the nth substance listed; settings: 101 kPa, Liquid, Wavelength=632.8 nm, Standard Abbe refractometry
[4] = refractive index (Na D-line) (dimensionless); settings: 101.33 kPa, Liquid, Standard Abbe refractometry

CCCCn1cc[n+](C)c1.F[B-](F)(F)F [1-butyl-3-methylimidazolium tetrafluoroborate]
[1]
Settings | mass density [kg/m3]
293.15 K | 1210.05 ± 1.2
298.15 K | 1206.32 ± 1.2
303.15 K | 1202.59 ± 1.2
308.15 K | 1198.97 ± 1.2
313.15 K | 1195.24 ± 1.1

[2], Wavelength=632.8 nm
Settings | refractive index
286.91 K | 1.4228 ± 0.0004
288.89 K | 1.4223 ± 0.0004
290.92 K | 1.4218 ± 0.0005
293.04 K | 1.4212 ± 0.0005
295.03 K | 1.4207 ± 0.0004
297.04 K | 1.4202 ± 0.0004
299.02 K | 1.4197 ± 0.0004
304.12 K | 1.4184 ± 0.0004
309.02 K | 1.4171 ± 0.0005
314.35 K | 1.4157 ± 0.0004
318.92 K | 1.4146 ± 0.0004

OCCCO [propan-1,3-diol] + CCCCn1cc[n+](C)c1.F[B-](F)(F)F
[3]
Settings | refractive index
286.8 K, w2 = 0.698 | 1.424 ± 0.0005
286.81 K, w2 = 0.796 | 1.4233 ± 0.0005
287.24 K, w2 = 0.901 | 1.4228 ± 0.0005
288.87 K, w2 = 0.796 | 1.4228 ± 0.0005
288.88 K, w2 = 0.901 | 1.4224 ± 0.0005
289.37 K, w2 = 0.698 | 1.4234 ± 0.0005
290.78 K, w2 = 0.602 | 1.4239 ± 0.0005
290.86 K, w2 = 0.796 | 1.4223 ± 0.0005
291 K, w2 = 0.901 | 1.4219 ± 0.0005
291.2 K, w2 = 0.698 | 1.4229 ± 0.0005
292.89 K, w2 = 0.796 | 1.4218 ± 0.0005
292.95 K, w2 = 0.901 | 1.4214 ± 0.0005
293.29 K, w2 = 0.602 | 1.4232 ± 0.0005
293.3 K, w2 = 0.698 | 1.4223 ± 0.0005
294.94 K, w2 = 0.698 | 1.4219 ± 0.0005
294.99 K, w2 = 0.901 | 1.4209 ± 0.0005
295.08 K, w2 = 0.602 | 1.4227 ± 0.0005
295.86 K, w2 = 0.796 | 1.4211 ± 0.0005
296.02 K, w2 = 0.513 | 1.4235 ± 0.0007
296.98 K, w2 = 0.602 | 1.4222 ± 0.0005
297 K, w2 = 0.901 | 1.4204 ± 0.0005
297.16 K, w2 = 0.0947 | 1.4328 ± 0.0004
297.94 K, w2 = 0.698 | 1.4211 ± 0.0005
297.96 K, w2 = 0.796 | 1.4206 ± 0.0005
298.14 K, w2 = 0.513 | 1.4229 ± 0.0005
298.49 K, w2 = 0.0947 | 1.4325 ± 0.0004
298.98 K, w2 = 0.602 | 1.4217 ± 0.0005
299.51 K, w2 = 0.384 | 1.4245 ± 0.0005
299.54 K, w2 = 0.299 | 1.4263 ± 0.0005
299.6 K, w2 = 0.194 | 1.4289 ± 0.0006
300 K, w2 = 0.0947 | 1.4321 ± 0.0005
300 K, w2 = 0.513 | 1.4224 ± 0.0005
300 K, w2 = 0.901 | 1.4196 ± 0.0005
301.08 K, w2 = 0.194 | 1.4285 ± 0.0004
301.1 K, w2 = 0.602 | 1.4211 ± 0.0004
301.22 K, w2 = 0.384 | 1.424 ± 0.0005
301.4 K, w2 = 0.299 | 1.4258 ± 0.0005
301.52 K, w2 = 0.0947 | 1.4317 ± 0.0005
302.02 K, w2 = 0.513 | 1.4218 ± 0.0005
302.17 K, w2 = 0.194 | 1.4282 ± 0.0006
303.06 K, w2 = 0.0947 | 1.4313 ± 0.0004
303.53 K, w2 = 0.384 | 1.4234 ± 0.0005
303.55 K, w2 = 0.299 | 1.4252 ± 0.0005
304.01 K, w2 = 0.513 | 1.4212 ± 0.0005
304.13 K, w2 = 0.194 | 1.4276 ± 0.0005
304.93 K, w2 = 0.513 | 1.4209 ± 0.0005
305.12 K, w2 = 0.0947 | 1.4308 ± 0.0004
305.28 K, w2 = 0.384 | 1.4229 ± 0.0005
305.3 K, w2 = 0.299 | 1.4247 ± 0.0005
305.51 K, w2 = 0.194 | 1.4272 ± 0.0005
307.32 K, w2 = 0.194 | 1.4267 ± 0.0005
307.43 K, w2 = 0.299 | 1.4241 ± 0.0005
307.44 K, w2 = 0.384 | 1.4223 ± 0.0005
308.96 K, w2 = 0.384 | 1.4219 ± 0.0005
309.08 K, w2 = 0.299 | 1.4236 ± 0.0005

OCCCO [propan-1,3-diol]
[1]
Settings | mass density [kg/m3]
293.15 K | 1053.48 ± 0.26
298.15 K | 1050.28 ± 0.26
303.15 K | 1047.26 ± 0.25
308.15 K | 1044.11 ± 0.25
313.15 K | 1040.94 ± 0.24

[2], Wavelength=63.28 nm
Settings | refractive index
287.46 K | 1.4396 ± 0.0004
288.88 K | 1.4392 ± 0.0004
290.94 K | 1.4387 ± 0.0004
293.1 K | 1.4381 ± 0.0004
295.16 K | 1.4375 ± 0.0004
297.02 K | 1.437 ± 0.0004
299.09 K | 1.4365 ± 0.0004
301.21 K | 1.4359 ± 0.0004

OCCCCO [1,4-butanediol] + CCCCn1cc[n+](C)c1.F[B-](F)(F)F
[3]
Settings | refractive index
296.24 K, w2 = 0.894 | 1.4221 ± 0.0004
298.19 K, w2 = 0.894 | 1.4216 ± 0.0004
300.13 K, w2 = 0.894 | 1.4211 ± 0.0004
301.24 K, w2 = 0.786 | 1.4216 ± 0.0004
302.15 K, w2 = 0.894 | 1.4206 ± 0.0004
303.16 K, w2 = 0.786 | 1.4211 ± 0.0004
303.25 K, w2 = 0.686 | 1.4223 ± 0.0004
304.14 K, w2 = 0.894 | 1.42 ± 0.0004
304.22 K, w2 = 0.579 | 1.4237 ± 0.0004
304.24 K, w2 = 0.786 | 1.4208 ± 0.0004
305.26 K, w2 = 0.686 | 1.4218 ± 0.0004
306.24 K, w2 = 0.579 | 1.4231 ± 0.0004
306.25 K, w2 = 0.094 | 1.4367 ± 0.0004
306.69 K, w2 = 0.894 | 1.4194 ± 0.0004
306.7 K, w2 = 0.484 | 1.4247 ± 0.0004
307.2 K, w2 = 0.094 | 1.4364 ± 0.0004
307.21 K, w2 = 0.786 | 1.42 ± 0.0004
307.29 K, w2 = 0.686 | 1.4212 ± 0.0004
308.22 K, w2 = 0.484 | 1.4243 ± 0.0004
308.24 K, w2 = 0.094 | 1.4361 ± 0.0004
308.27 K, w2 = 0.579 | 1.4225 ± 0.0004
309.2 K, w2 = 0.686 | 1.4207 ± 0.0004
309.23 K, w2 = 0.094 | 1.4358 ± 0.0004
309.24 K, w2 = 0.786 | 1.4195 ± 0.0004
309.26 K, w2 = 0.381 | 1.4264 ± 0.0004
309.55 K, w2 = 0.19 | 1.4322 ± 0.0004
309.73 K, w2 = 0.484 | 1.4238 ± 0.0004
309.88 K, w2 = 0.286 | 1.4289 ± 0.0004
310.17 K, w2 = 0.094 | 1.4355 ± 0.0004
310.22 K, w2 = 0.579 | 1.422 ± 0.0004
310.64 K, w2 = 0.381 | 1.426 ± 0.0004
311.22 K, w2 = 0.286 | 1.4285 ± 0.0004
311.22 K, w2 = 0.686 | 1.4202 ± 0.0004
311.25 K, w2 = 0.19 | 1.4317 ± 0.0004
311.33 K, w2 = 0.484 | 1.4234 ± 0.0004
311.85 K, w2 = 0.786 | 1.4188 ± 0.0004
312.19 K, w2 = 0.579 | 1.4214 ± 0.0004
312.27 K, w2 = 0.094 | 1.4349 ± 0.0004
312.31 K, w2 = 0.381 | 1.4255 ± 0.0004
312.78 K, w2 = 0.19 | 1.4312 ± 0.0004
312.88 K, w2 = 0.484 | 1.4229 ± 0.0004
313 K, w2 = 0.286 | 1.4279 ± 0.0004
313.28 K, w2 = 0.686 | 1.4196 ± 0.0004
313.79 K, w2 = 0.381 | 1.4251 ± 0.0004
314.29 K, w2 = 0.19 | 1.4308 ± 0.0004
314.29 K, w2 = 0.579 | 1.4208 ± 0.0004
314.31 K, w2 = 0.484 | 1.4225 ± 0.0004
314.32 K, w2 = 0.094 | 1.4343 ± 0.0004
314.39 K, w2 = 0.286 | 1.4275 ± 0.0004
315.65 K, w2 = 0.381 | 1.4246 ± 0.0004
315.79 K, w2 = 0.286 | 1.4271 ± 0.0004
316.13 K, w2 = 0.19 | 1.4302 ± 0.0004
317.3 K, w2 = 0.19 | 1.4299 ± 0.0004
317.35 K, w2 = 0.286 | 1.4266 ± 0.0004
317.38 K, w2 = 0.381 | 1.4241 ± 0.0004

OCCCCO [1,4-butanediol]
Settings | mass density [kg/m3] | refractive index
[1], 293.15 K | 1016.37 ± 0.5 | –
[1], 298.15 K | 1013.04 ± 0.49 | –
[1], 303.15 K | 1009.96 ± 0.48 | –
[1], 308.15 K | 1006.75 ± 0.47 | –
[1], 313.15 K | 1003.55 ± 0.46 | –
[1], 318.15 K | 1000.72 ± 0.45 | –
[4], 294.23 K | – | 1.4447 ± 0.0005
[4], 297.67 K | – | 1.4437 ± 0.0005
[4], 300.86 K | – | 1.4428 ± 0.0005
[4], 303.23 K | – | 1.4422 ± 0.0005
[4], 306.21 K | – | 1.4414 ± 0.0005
[4], 309.13 K | – | 1.4406 ± 0.0005
[4], 313.69 K | – | 1.4393 ± 0.0005

— the NIST ThermoML archive (doi:10.1021/je900864n)
